Legend:
Test in all cases: MTS cell viability assay
Assay type in all cases: cell-based
[1] = system: HEC1A; conditions: Homo sapiens, HEC-1-A, endometrial
Procedure: (§1) Cell viability was determined by measuring the activity of dehydrogenase enzymes in metabolically active cells using a tetrazolium compound, MTS. The assay was performed as described in Promega Technical Bulletin No. 169 (CellTiter 96 Aqueous Non-Radioactive Cell Proliferation Assay). Two human cancer cell lines were assayed (see, Table 1). Cells were maintained at 37° C. and 5% CO2 in DMEM media (4.5 g/L glucose) supplemented with 10% heat-inactivated FBS, 10 mM L-glutamine, and 10 mM Hepes pH 7.5. Briefly, cells were seeded in 96-well plates as set forth in Table 1 and incubated for 16-24 hours. Candidate compounds were serially diluted in DMSO, further diluted in cell culture media, and then added to cells (final DMSO concentration of 0.33%). Cells were incubated in the presence of candidate compound for 72 hours. MTS stock solution (MTS 2 gm/L, PMS […] in PBS) was added to the cells (final concentration MTS […] and PMS 7.67 mg/L) and incubated for 4 hours. SDS was added to a final concentration of 1.4% and absorbance at 490 nm was measured within two hours using a plate reader. […] GI50 values were given in Table 2 for the compounds listed. The Compound Numbers in Table 2 correspond to the numbers listed parenthetically in the Example titles. Where multiple measurements were made by different technicians, both values are given.
(§2) Cell viability was determined for N-(3-amino-propyl)-3-chloro-N—[(R)-1-(7-chloro-4-oxo-3-phenylamino-3,4-dihydro-quinazolin-2-yl)-but-3-ynyl]-2-fluoro-benzamide (compound I of Table 2). The cell viability assay of Example 105 was used. GI50 was determined using a variety of cell lines. Cells were plated at 100-5000 cells per well. At least 2 replicates were performed. Where multiple measurements were made by different technicians, both values are given.

[2] = system: MDA-MB-231; conditions: Breast adenocarcinoma
Procedure: as §1, §2

[3] = system: HCT-15; conditions: Homo sapiens, colon
Procedure: as §1, §2

[4] = system: KG-1; conditions: Homo sapiens, AML
Procedure: as §1, §2

[5] = system: DU145; conditions: prostate
Procedure: as §1, §2

[6] = system: SKMES-1; conditions: Homo sapiens, SK-MES-1, Squamous cell carcinoma
Procedure: as §1, §2

[7] = system: SW620; conditions: Homo sapiens, SW-620, Colorectal adenocarcinoma
Procedure: as §1, §2

[8] = system: CALU-6; conditions: Homo sapiens, lung
Procedure: as §1, §2

[9] = system: 786-O; conditions: Homo sapiens, 786-0, kidney
Procedure: as §1, §2

[10] = system: RT-4; conditions: Human urinary bladder cell carcinoma
Procedure: as §1, §2

[11] = system: A427; conditions: Homo sapiens, A-427, Lung Carcinoma
Procedure: as §1, §2

[12] = system: NCI-H1299; conditions: Homo sapiens, Non-small cell lung carcinoma
Procedure: as §1, §2

[13] = system: NCI-H520; conditions: Homo sapiens, Squamous cell lung carcinoma
Procedure: as §1, §2

[14] = system: SNU475; conditions: Homo sapiens, SNU-475, liver
Procedure: as §1, §2

[15] = system: U937; conditions: Homo sapiens, U-937, Monocyte Histocytic Lymphoma
Procedure: as §1, §2

[16] = system: MCF-7; conditions: breast
Procedure: as §1, §2

[17] = system: SNU-1; conditions: Homo sapiens, SNU1, Stomach
Procedure: as §1, §2

[18] = system: LoVo; conditions: Homo sapiens, Colorectal Carcinoma
Procedure: as §1, §2

[19] = system: SW480; conditions: colon
Procedure: as §1, §2

[20] = system: NCI-H526; conditions: Homo sapiens, Lung carcinoma, variant small cell lung cancer
Procedure: as §1, §2

[21] = system: AN3CA; conditions: Homo sapiens, AN3-CA, endometrial
Procedure: as §1, §2

[22] = system: KG-1a; conditions: Homo sapiens, AML
Procedure: as §1, §2

[23] = system: HEP-3B; conditions: Homo sapiens, Hep3B, liver
Procedure: as §1, §2

[24] = system: HEP-G2; conditions: Homo sapiens, HepG2, Hepatocellular carcinoma
Procedure: as §1, §2

[25] = system: NCI-H441; conditions: Lung Papillary Adenocarcinoma
Procedure: as §1, §2

[26] = system: BDCM; conditions: Lymphoblast
Procedure: as §1, §2

[27] = system: ASPC-1; conditions: Homo sapiens, ASPC1, pancreas
Procedure: as §1, §2

[28] = system: A-375; conditions: Homo sapiens, Malignant melanoma
Procedure: as §1, §2

[29] = system: NTERA-2 c1. D1; conditions: NTERA2, Testis pluripotent embryonal carcinoma
Procedure: as §1, §2

[30] = system: NCI-H661; conditions: Homo sapiens, Large cell Lung Cancer
Procedure: as §1, §2

[31] = system: THP-1; conditions: Homo sapiens, Acute monocytic leukemia
Procedure: as §1, §2

[32] = system: HCT-116; conditions: Homo sapiens, colon
Procedure: as §1, §2

C#CC[C@H](c1nc2cc(Cl)ccc2c(=O)n1Nc1ccccc1)N(CCCN)C(=O)c1cccc(Cl)c1F [Compound 1, N-(3-Amino-propyl)-3-chloro-N—[(R)-1-(7-chloro-4-oxo-3-phenylamino-3,4-dihydro-quinazolin-2-yl)-but-3-ynyl]-2-fluoro-benzamide]
GI50 [1]: 316 nM | GI50 ([2]; Homo sapiens, MDA-MB-231, MDA-MB-231): 359 nM | GI50 ([2]; MDA-MB-231, listed as I): 249 nM | GI50 [3]: 3020 nM | GI50 [4]: 1720 nM | GI50 ([5]; DU145, listed as I): 304 nM | GI50 ([5]; Homo sapiens, DU-145, DU145): 303 nM | GI50 [6]: 1000 nM | GI50 [7]: 317 nM | GI50 [8]: 105 nM | GI50 [9]: 1740 nM | GI50 [10]: 368 nM | GI50 [11]: 64 nM | GI50 [12]: 549 nM | GI50 [13]: 139 nM | GI50 [14]: 2350 nM | GI50 [15]: 155 nM | GI50 ([16]; Homo sapiens, MCF7, MCF-7): 5080 nM | GI50 ([16]; MCF-7, listed as I): 4830 nM | GI50 [17]: 552 nM | GI50 [18]: 359 nM | GI50 ([19]; Homo sapiens, SW480, SW480): 1270 nM | GI50 ([19]; SW480, listed as I): 1220 nM | GI50 [20]: 125 nM | GI50 [21]: 201 nM | GI50 [22]: 3200 nM | GI50 [23]: 773 nM | GI50 [24]: 3840 nM | GI50 ([25]; Homo sapiens, NCI-H441, NCI-H441): 3340 nM | GI50 ([25]; NCI-H441, listed as I): 2250 nM | GI50 [26]: 207 nM | GI50 [27]: 549 nM | GI50 [28]: 766 nM | GI50 [29]: 63 nM | GI50 [30]: 109 nM | GI50 [31]: 226 nM | GI50 [32]: 74 nM

Reference: patent publication US20110217300A1, “Quinazolinone Compounds and Methods of Use Thereof” (priority 2007, published 2011)
